Article PMC3575848 (Nucleic Acids Research, 2012)

Tests used:
Assay type in all cases: binding
[1] = molecular target: T1, HsaDRS2 (Homo sapiens, UniProt Q6PI48); assay: isothermal titration calorimetry
T1 sequence (Q6PI48 41-645): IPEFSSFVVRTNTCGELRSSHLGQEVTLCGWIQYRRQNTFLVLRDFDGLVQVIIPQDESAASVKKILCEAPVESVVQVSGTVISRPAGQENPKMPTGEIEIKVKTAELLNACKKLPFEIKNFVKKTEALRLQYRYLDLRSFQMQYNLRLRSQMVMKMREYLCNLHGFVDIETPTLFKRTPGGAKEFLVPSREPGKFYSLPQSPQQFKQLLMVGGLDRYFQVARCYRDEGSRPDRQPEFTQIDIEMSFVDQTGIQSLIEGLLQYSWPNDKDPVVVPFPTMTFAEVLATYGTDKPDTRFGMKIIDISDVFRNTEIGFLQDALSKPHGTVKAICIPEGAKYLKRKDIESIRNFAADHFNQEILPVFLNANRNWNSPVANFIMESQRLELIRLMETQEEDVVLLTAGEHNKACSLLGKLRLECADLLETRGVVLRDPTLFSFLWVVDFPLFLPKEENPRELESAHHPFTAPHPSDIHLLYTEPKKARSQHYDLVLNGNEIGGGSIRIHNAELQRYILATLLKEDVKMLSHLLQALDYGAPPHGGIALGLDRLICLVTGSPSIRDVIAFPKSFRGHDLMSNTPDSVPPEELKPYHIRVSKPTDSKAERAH

[2] = molecular target: T2, EcoDRS (Escherichia coli, UniProt P21889); assay: isothermal titration calorimetry
[3] = molecular target: T2, EcoDRS; assay: thermal shift by dynamic light scattering; settings: protein 3 mg/ml, temperature gradient
[4] = molecular target: T1, HsaDRS2; assay: thermal shift by dynamic light scattering and differential scanning fluorimetry; settings: protein 3 mg/ml, temperature gradient

T2 sequence (P21889 whole entry): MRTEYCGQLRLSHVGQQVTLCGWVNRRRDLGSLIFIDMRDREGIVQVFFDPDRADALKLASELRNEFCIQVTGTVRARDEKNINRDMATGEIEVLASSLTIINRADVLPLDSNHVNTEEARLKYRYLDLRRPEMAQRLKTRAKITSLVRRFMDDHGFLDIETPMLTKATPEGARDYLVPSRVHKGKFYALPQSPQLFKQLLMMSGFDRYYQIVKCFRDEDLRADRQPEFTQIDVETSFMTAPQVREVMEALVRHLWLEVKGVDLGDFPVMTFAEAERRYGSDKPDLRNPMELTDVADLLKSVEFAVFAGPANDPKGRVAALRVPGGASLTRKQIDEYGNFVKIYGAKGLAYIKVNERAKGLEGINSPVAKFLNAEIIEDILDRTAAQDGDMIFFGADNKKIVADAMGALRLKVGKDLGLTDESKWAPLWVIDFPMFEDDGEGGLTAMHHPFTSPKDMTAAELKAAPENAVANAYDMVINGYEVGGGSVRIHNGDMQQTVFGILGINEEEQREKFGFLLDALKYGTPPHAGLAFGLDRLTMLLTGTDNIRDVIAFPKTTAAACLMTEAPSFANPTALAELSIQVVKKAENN

Kd [1]: 17.5 ± 12 nM
Kd [2]: 2.95 ± 1.34 nM
Compound: Nc1ncnc2c1ncn2[C@@H]1O[C@H](COS(=O)(=O)NC(=O)[C@@H](N)CC(=O)O)[C@@H](O)[C@H]1O [Asp–AMS, 5′-O-[N-(L-aspartyl)sulfamoyl] adenosine]
Tm [3]: only Asp–AMS (dashed grey line) influences the thermostability of the two enzymes positively
Tm [4]: Significant stabilization was observed in the presence of Asp–AMS
